Test results from publication PMC5717258, “Bioaccumulation of pharmaceuticals and personal care product chemicals in fish exposed to wastewater effluent in an urban wetland” (Scientific Reports, 2017).
Like-named read-outs stand apart in the source and are kept apart here.

Key:
[1] = design: method as in US EPA Chemistry Dashboard; details: ref US EPA Chemistry Dashboard; cited from earlier work
[2] = Protocol: Plasma from 9 individual male fish (500 µL/individual) was pooled to yield 3 samples for PPCP analysis. […] Plasma from 6 individual carp (2.3–3.5 g) from each location was selected for PPCP analysis. […] Plasma samples were frozen (−80 °C) until analysis.
(§1) A total of 20 fish plasma samples from the pooled caged fish (7) and the wild fish (13) along with 12 water samples were selected for analysis. […] A full list of analytes is provided in Supplementary Information. Mass labelled^13C-, or deuterated surrogate internal standards were used for quantification of all analytes via the isotope dilution/surrogate standard quantitation method. Prior to extraction and/or clean-up procedures, aqueous samples were adjusted to pH 2.0, spiked with extraction surrogate standards, then adjusted to pH 4 using tetrasodium ethylenediamine-tetraacetate dihydrate. Plasma samples (2.3–2.5 g) were spiked with extraction surrogate standards, sonicated with 20 mL acetonitrile, then diluted with ultra-pure water to 200 mL. The extracts were cleaned up by solid phase extraction using Oasis HLB cartridges (Waters Ltd. Mississauga ON), filtered, and analyzed by liquid chromatography-electrospray ionization-tandem mass spectrometry (LC/ESI-MS/MS) in positive or negative ionization mode. The analysis of the complete list of analytes (SI Table S1) required a total of five instrumental runs.
(§2) Quality assurance steps included analysis of lab blanks for water and plasma along with matrix recovery spikes. […] Detection limits (DLs) were defined as lowest calibration level adjusted to the maximal sample size or 3 times the signal of the noise in the target channel converted to an equivalent sample, whichever was greater. […] Where analytes were detected in two or more samples of the same species or series of water samples, non-detect values were converted to ½ the DL value for reporting purposes.

in vivo = details: for concentration at 21 days: goldfish (Carassius auratus)
Text: Cages were visited weekly, and fish (13/cage) were fed during the visits (20 g/cage). All animal experiments were in accordance with CCAC guidance and approved by the GLLFAS-WSTD Animal Care Committee (Government of Canada). Further details on the caging and preparation of the fish and animal care protocols are provided in Simmons et al.[32]. […] A fourth site, Jordan Harbour (JH), a widening of 20 Mile Creek adjacent to Lake Ontario near Jordan ON, served as a reference site. Mass and fork length were measured and recorded. Plasma collection and storage is described in the SI. Plasma of caged goldfish was divided for proteome, metabolome and PPCP analysis. Due to limited volumes, pooled samples of plasma from 25 individual fish (50 µL/individual) was pooled to yield one sample from at each location for PPCP analysis.
as §1, §2

[3] = Plasma bioaccumulation factor (BAFP), goldfish; assay type: in vivo, goldfish (Carassius auratus); details: for BAFP, CPM2 goldfish caged: water sample of August 2012; for BAFP at CPM3, wild goldfish, average: conc in fish plasma/conc in water; for BAFP at CPM3, wild goldfish, range: range based on range of plasma concentrations
Protocol: Bioaccumulation factor (BAFP) was calculated as concentration in fish plasma (ng/g × 1000) divided by concentration in water (ng/L). Two widely used modeling approaches for predicting organic contaminant bioaccumulation were assessed: the BCF-BAF model for whole body BAFs[53] and the fish-plasma concentration calculation of Huggett et al.[35] modified by Berninger et al.[54]. The latter involves estimating an octanol-water partition coefficient (Kow) adjusted for fraction ionized (log D), using the pKa value to adjust log Kow[54] taking into account the pH of CPM waters. Further information on the calculation of log D, blood-water partitioning (PBW), and plasma concentrations (FPC) is given in the SI.

[4] = cited from earlier work
[5] = cited from earlier work; remark: listed apart in the source
[6] = human, ref Schulz et al.[56], cited from earlier work; for Therapeutic "normal" blood-plasma/serum concentration: converted from µg/mL
[7] = male, goldfish (Carassius auratus), in vivo
[8] = in vivo, caged goldfish plasma, range of concentrations
[9] = in vivo, plasma concentration, CPM1 caged
[10] = in vivo, plasma concentration, CPM2 caged
[11] = in vivo, plasma concentration, CPM3 caged
[12] = in vivo, plasma concentration, JH caged
[13] = Table S7, ref Meador et al. (2016)
[14] = wild goldfish sample 01, 2012, wet weight
[15] = wild goldfish sample 02, 2012, wet weight
[16] = wild goldfish sample 03, 2012, wet weight
[17] = CPM1, 07-2014, pooled plasma, wet weight
[18] = CPM2, 07-2014, pooled plasma, wet weight
[19] = CPM3, 07-2014, pooled plasma, wet weight
[20] = Jordan Harbour reference site, 07-2014, pooled plasma, wet weight

C[C@H](O)C(=O)Nc1c(I)c(C(=O)NC(CO)CO)c(I)c(C(=O)NC(CO)CO)c1I [Iopamidol]
log Kow [1]: -2.21
plasma concentration, carp, this study (mean) ([2]; in vivo): < mdl
plasma concentration, CPM wild-01 [2, 7]: 7.85 ng/g
plasma concentration, CPM wild-02 [2, 7]: 8.15 ng/g
plasma concentration, CPM wild-03 [2, 7]: 8.35 ng/g
plasma concentration, goldfish, this study (mean) [2, 7]: 8.12 ng/g wet weight or ng/mL for plasma
wild goldfish plasma, range of concentrations [2, 7]: 8.2 to 20.9 ng/g
concentration at 21 days (in vivo; [8]): 7.85 to 8.35 ng/g
concentration at 21 days (in vivo; [9]): 20.9 ng/g
concentration at 21 days (in vivo; [10]): 17.6 ng/g
concentration at 21 days (in vivo; [11]): 8.2 ng/g
concentration at 21 days (in vivo; [12]): < 16 ng/g
BAFP, CPM1 goldfish caged [3]: 75 L/kg
BAFP, CPM2 goldfish caged [3]: 50 L/kg
BAFP, CPM3 goldfish caged [3]: 13 L/kg
BAFP at CPM3, wild goldfish, average [3]: 38 L/kg
BAFP at CPM3, wild goldfish, range [3]: 37 to 40 L/kg

COc1ccc(CCNCCCC(C#N)(c2ccc(OC)c(OC)c2)C(C)C)cc1OC (stereo not shown) [Norverapam il, Norverapamil]
Sculpin (whole body) concentration [4, 13]: 0.20 to 0.30 ng/g
Salmon (whole body) concentration [5, 13]: 0.12 to 0.47 ng/g

Nc1ccc(S(=O)(=O)Nc2ncccn2)cc1 [Sulfadiazine]
Salmon (whole body) concentration [5, 13]: 0.88 ng/g

Cc1nnc2n1-c1ccc(Cl)cc1C(c1ccccc1)=NC2 [Alpr azolam, Alprazolam]
Sculpin (whole body) concentration [4, 13]: 0.38 ng/g

Anhydrochlortetracycline
plasma concentration, CPM wild-01 [2, 14]: < 2.94 ng/g
plasma concentration, CPM wild-02 [2, 15]: < 3.18 ng/g
plasma concentration, CPM wild-03 [2, 16]: < 3.13 ng/g
plasma concentration, CPM1 caged (in vivo; [17]): 2.97 ng/g
plasma concentration, CPM2 caged (in vivo; [18]): < 2.92 ng/g
plasma concentration, CPM3 caged (in vivo; [19]): < 3.07 ng/g
plasma concentration, JH caged (in vivo; [20]): < 3.0 ng/g

CC[C@H]1OC(=O)[C@H](C)[C@@H](O[C@H]2C[C@@](C)(OC)[C@@H](O)[C@H](C)O2)[C@H](C)[C@@H](O[C@@H]2O[C@H](C)C[C@H](N(C)C)[C@H]2O)[C@](C)(O)C[C@@H](C)CN(C)[C@H](C)[C@@H](O)[C@]1(C)O [Azithrom yc in, Azithromycin]
Salmon (whole body) concentration [5, 13]: 1.7 ng/g

CN1[C@@H]2CC[C@H]1C[C@@H](OC(c1ccccc1)c1ccccc1)C2 [Benztropine]
log Kow [1]: 3.85
whole fish concentration, sculpin ([4]; ref Meador et al. 18): < mdl
Salmon (whole body) concentration [5, 13]: 0.2 ng/g
whole fish concentration, salmon ([5]; ref Meador et al. 18): 0.2 ng/g wet weight or ng/mL for plasma
Therapeutic "normal" blood-plasma/serum concentration [6]: 10 to 180 ng/mL
toxic dose (toxic blood-plasma/serum concentration) [6]: 50 ng/mL

CN(C)CCC=C1c2ccccc2CCc2ccccc21 [Amitriptyline]
Goldfish plasma concentration, this study (range) ([2]; Table S7): 0.03 to 0.09 ng/g
plasma concentration, CPM wild-01 [2, 14]: 0.029 ng/g
plasma concentration, CPM wild-02 [2, 15]: 0.082 ng/g
plasma concentration, CPM wild-03 [2, 16]: 0.091 ng/g
concentration at 21 days (in vivo; in vivo, plasma concentration, CPM1 caged, CPM1, 07-2014, pooled plasma, wet weight): 0.029 ng/g
concentration at 21 days (in vivo; in vivo, plasma concentration, CPM2 caged, CPM2, 07-2014, pooled plasma, wet weight): 0.029 ng/g
concentration at 21 days (in vivo; in vivo, plasma concentration, CPM3 caged, CPM3, 07-2014, pooled plasma, wet weight): 0.031 ng/g
concentration at 21 days (in vivo; in vivo, plasma concentration, JH caged, Jordan Harbour reference site, 07-2014, pooled plasma, wet weight): < 0.06 ng/g
Salmon (whole body) concentration [5, 13]: 0.58 to 0.68 ng/g

CC1=C\[C@@H](O)CC(=O)Cc2nc(co2)C(=O)N2CCC=C2C(=O)O[C@H](C(C)C)[C@H](C)/C=C/C(=O)NC\C=C\1 [Virg in iam ycin M1, Virginiamycin M1]
Sculpin (whole body) concentration [4, 13]: 8 to 34 ng/g
Salmon (whole body) concentration [5, 13]: 10 ng/g

CC(C)(c1ccc(O)cc1)c1ccc(O)cc1 [Bisphenol A]
Sculpin (whole body) concentration [4, 13]: 3.6 to 4.5 ng/g
Salmon (whole body) concentration [5, 13]: 3.3 to 41 ng/g

CNCCC(Oc1ccc(C(F)(F)F)cc1)c1ccccc1 (stereo not shown) [Fluoxetine]
Salmon (whole body) concentration [5, 13]: 4.9 ng/g

CN(C)CCOC(c1ccccc1)c1ccccc1 [Diphenhydramine]
BAFP, CPM1 goldfish caged [3]: 7 L/kg
BAFP, CPM2 goldfish caged [3]: 5 L/kg

Cc1ccnc(NS(=O)(=O)c2ccc(N)cc2)n1 [Sulfam erazine, Sulfamerazine]
Salmon (whole body) concentration [5, 13]: 0.51 ng/g

CN(C)CCCC1(c2ccc(F)cc2)OCc2cc(C#N)ccc21 (stereo not shown) [Citalopram]
log Kow [1]: 3.74
plasma concentration, carp, this study (mean) ([2]; in vivo): < mdl
plasma concentration, CPM wild-01 [2, 7]: 0.0392 ng/g
plasma concentration, CPM wild-02 [2, 7]: 0.127 ng/g
plasma concentration, CPM wild-03 [2, 7]: 0.13 ng/g
plasma concentration, goldfish, this study (mean) [2, 7]: 0.10 ng/g wet weight or ng/mL for plasma
wild goldfish plasma, range of concentrations [2, 7]: 0.04 to 0.16 ng/g
concentration at 21 days (in vivo; [8]): 0.04 to 0.13 ng/g
concentration at 21 days (in vivo; [9]): 0.145 ng/g
concentration at 21 days (in vivo; [10]): 0.163 ng/g
concentration at 21 days (in vivo; [11]): 0.041 ng/g
concentration at 21 days (in vivo; [12]): < 0.08 ng/g
BAFP, CPM1 goldfish caged [3]: 4 L/kg
BAFP, CPM2 goldfish caged [3]: 6 L/kg
BAFP, CPM3 goldfish caged [3]: 52 L/kg
BAFP at CPM3, wild goldfish, average [3]: 44 L/kg
BAFP at CPM3, wild goldfish, range [3]: 18 to 58 L/kg
Therapeutic "normal" blood-plasma/serum concentration [6]: 50 to 110 ng/mL

O=C(O)c1cn(C2CC2)c2cc(N3CCNCC3)c(F)cc2c1=O [Ciproﬂoxacin, Ciprofloxacin]
Sculpin (whole body) concentration [4, 13]: 17 ng/g

COc1cc(NS(=O)(=O)c2ccc(N)cc2)nc(OC)n1 [Sulfadim ethoxine, Sulfadimethoxine]
Salmon (whole body) concentration [5, 13]: 0.34 to 17 ng/g

COc1cc(C)c(Cc2cnc(N)nc2N)cc1OC [Orm etoprim, Ormetoprim]
Salmon (whole body) concentration [5, 13]: 44 to 1600 ng/g

NC(=O)N1c2ccccc2C=Cc2ccccc21 [carbamazepine]
detection in fish plasma (in vivo; in vivo): not detected

CN(C)CCC=C1c2ccccc2CC(O)c2ccccc21 (stereo not shown) [10-hydroxy-amitriptyline]
plasma concentration, CPM-C 01 ([2]; Cootes carp 01, 2011, male, wet weight): 0.032 ng/g
plasma concentration, CPM-C 2 ([2]; Cootes carp 2, Sep 27, 2011, male, wet weight): 0.053 ng/g
plasma concentration, CPM-C 10 ([2]; Cootes carp 10, Sep 28, 2011, female, wet weight): 0.024 ng/g
plasma concentration, CPM-C 13 ([2]; Cootes carp 13, Sep 28, 2011, female, wet weight): 0.047 ng/g
plasma concentration, CPM-C 20 ([2]; Cootes carp 20, 2011, male, wet weight): 0.016 ng/g
plasma concentration, CPM-C 36 ([2]; Cootes carp 36, Oct 3, 2011, female, wet weight): 0.025 ng/g
Carp plasma concentration, this study (range) ([2]; Table S7): 0.02 to 0.05 ng/g
Goldfish plasma concentration, this study (range) ([2]; Table S7): 0.01 to 0.06 ng/g
plasma concentration, CPM wild-01 [2, 14]: 0.015 ng/g
plasma concentration, CPM wild-02 [2, 15]: 0.036 ng/g
plasma concentration, CPM wild-03 [2, 16]: 0.058 ng/g
plasma concentration, CPM1 caged (in vivo; [17]): 0.033 ng/g
plasma concentration, CPM2 caged (in vivo; [18]): 0.039 ng/g
plasma concentration, CPM3 caged (in vivo; [19]): 0.015 ng/g
plasma concentration, JH caged (in vivo; [20]): < 0.03 ng/g
Sculpin (whole body) concentration ([4]; in vivo): 0.13 ng/g
Salmon (whole body) concentration ([5]; in vivo): 0.09 ng/g

CN1C(=O)CN=C(c2ccccc2)c2cc(Cl)ccc21 [Diazepam]
Sculpin (whole body) concentration [4, 13]: 0.25 ng/g
Salmon (whole body) concentration [5, 13]: 0.39 ng/g

CNCCN1C(=O)[C@H](OC(C)=O)[C@H](c2ccc(OC)cc2)Sc2ccccc21 [Desm eth yld ilt ia zem, Desmethyldiltiazem]
Sculpin (whole body) concentration [4, 13]: 0.07 to 0.08 ng/g
Salmon (whole body) concentration [5, 13]: 0.06 to 1.5 ng/g

Clc1ccc(COC(Cn2ccnc2)c2ccc(Cl)cc2Cl)c(Cl)c1 (stereo not shown) [Miconazole]
Salmon (whole body) concentration [5, 13]: 1.8 ng/g

Oc1cc(Cl)ccc1Oc1ccc(Cl)cc1Cl [T riclosan, Triclosan]
Salmon (whole body) concentration [5, 13]: 26 ng/g
